# Where “and” joins values, the source holds several entries; their conditions need not be identical. Identical values can stand only once.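 Five compound concentrations were applied to cells in 96-well plates for 48 hours; endpoints were derived by simple linear interpolation of the resulting dose-response curve. GI50 = concentration required for 50% inhibition of growth. TGI marks complete inhibition of growth.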
# Key:
# Assay in all cases: NCI-60 cell line screen, 48 h
# [1] = system: M14 melanoma
# [2] = system: HS 578T breast
# [3] = system: A498 renal
# [4] = system: RPMI-8226 leukemia
# [5] = system: LOX IMVI melanoma
# [6] = system: HOP-92 NSCLC
# [7] = system: KM12 colon
# [8] = system: XF 498 CNS
# [9] = system: EKVX NSCLC
# [10] = system: COLO 205 colon
# [11] = system: DMS 273 small cell lung
# [12] = system: DMS 114 small cell lung
# [13] = system: M19-MEL melanoma
# [14] = system: HL-60(TB) leukemia
# [15] = system: BT-549 breast
# [16] = system: NCI-H23 lung
# [17] = system: DU-145 prostate
# [18] = system: NCI-H460 lung
# [19] = system: SK-OV-3 ovarian
# [20] = system: SNB-78 CNS
# [21] = system: SN12C renal
# [22] = system: SK-MEL-5 melanoma
# [23] = system: SF-268 CNS
# [24] = system: MOLT-4 leukemia
# [25] = system: OVCAR-8 ovarian
# [26] = system: UACC-257 melanoma
# [27] = system: HT29 colon
# [28] = system: MALME-3M melanoma
# [29] = system: IGROV1 ovarian
# [30] = system: K-562 leukemia
# [31] = system: NCI-H522 lung
# [32] = system: HOP-62 NSCLC
# [33] = system: CAKI-1 renal
# [34] = system: KM20L2 colon
# [35] = system: LXFL 529 NSCLC
# [36] = system: HCT-116 colon
# [37] = system: MDA-MB-231 breast
# [38] = system: U251 CNS
# [39] = system: DLD-1 colon
# [40] = system: HCC-2998 colon
# [41] = system: MDA-N
# [42] = system: SF-295 CNS
# [43] = system: SW-620 colon
# [44] = system: T-47D breast
# [45] = system: OVCAR-5 ovarian
# [46] = system: OVCAR-3 ovarian
# [47] = system: UO-31 renal
# [48] = system: 786-0 renal
# [49] = system: OVCAR-4 ovarian
# [50] = system: PC-3 prostate
# [51] = system: HCT-15 colon
# [52] = system: SNB-75 CNS
# [53] = system: HOP-18 NSCLC
# [54] = system: SF-539 CNS
# [55] = system: UACC-62 melanoma
# [56] = system: ACHN renal
# [57] = system: TK-10 renal
# [58] = system: A549 NSCLC
# [59] = system: SK-MEL-2 melanoma
# [60] = system: MCF7 breast
# [61] = system: SNB-19 CNS
# [62] = system: CCRF-CEM leukemia
# [63] = system: SK-MEL-28 melanoma
# [64] = system: RXF 393 renal
# [65] = system: NCI-H226 lung
# [66] = system: MDA-MB-435
# [67] = system: SR leukemia
smiles,measurement,setting,value
CN(C)C[C@H]1CC[C@@H](CN(C)C)C1=O,TGI,[1],16.7 µM
same,TGI,[2],36.6 µM
same,TGI,[3],> 50 µM
same,GI50,[4],1170 nM
same,TGI,[4],> 12.9 µM
same,TGI,[5],14.2 µM
same,TGI,[6],20.5 µM
same,TGI,[7],27.5 µM
same,TGI,[8],15.1 µM
same,TGI,[9],24.3 µM
same,GI50,[10],759 nM
same,TGI,[10],11.3 µM
same,TGI,[11],16.7 µM
same,TGI,[12],17.5 µM
same,TGI,[13],17 µM
same,TGI,[14],4.1 µM
same,TGI,[15],14.1 µM
same,TGI,[16],18.4 µM
same,TGI,[17],> 50 µM
same,TGI,[18],37.8 µM
same,TGI,[19],> 50 µM
same,TGI,[20],23.3 µM
same,TGI,[21],15.4 µM
same,TGI,[22],23.6 µM
same,TGI,[23],25.1 µM
same,TGI,[24],4.69 µM
same,TGI,[25],17.1 µM
same,TGI,[26],16 µM
same,TGI,[27],21.1 µM
same,TGI,[28],7.25 µM
same,TGI,[29],31.6 µM
same,TGI,[30],1430 nM
same,GI50,[31],269 nM
same,TGI,[31],686 nM and 1180 nM
same,TGI,[32],> 50 µM
same,GI50,[33],297 nM
same,TGI,[34],25.5 µM
same,TGI,[35],12.5 µM
same,TGI,[36],15.6 µM
same,TGI,[37],17.3 µM
same,TGI,[38],> 40.4 µM
same,TGI,[39],11.5 µM
same,TGI,[40],> 37.5 µM
same,TGI,[41],16.1 µM
same,TGI,[42],> 50 µM
same,TGI,[43],5.55 µM
same,TGI,[44],23.6 µM
same,TGI,[45],16.3 µM
same,TGI,[46],16.6 µM
same,TGI,[47],23.1 µM
same,TGI,[48],12.8 µM
same,TGI,[49],16.3 µM
same,TGI,[50],15.7 µM
same,TGI,[51],11 µM
same,TGI,[52],> 28.7 µM
same,TGI,[53],14.8 µM
same,TGI,[54],21.4 µM
same,TGI,[55],16.6 µM
same,TGI,[56],15.1 µM
same,TGI,[57],15 µM
same,TGI,[58],> 50 µM
same,TGI,[59],15.4 µM
same,TGI,[60],6.19 µM
same,TGI,[61],> 50 µM
same,GI50,[62],1230 nM
same,TGI,[62],5.02 µM
same,TGI,[63],12.2 µM
same,TGI,[64],16.8 µM
same,TGI,[65],32.3 µM
same,TGI,[66],19.6 µM
same,TGI,[67],> 50 µM

# From PubChem BioAssay (NCI)
